Reference: PubChem BioAssay (NCI)
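Grown in 96-well plates, cells were treated for 48 hours with each compound at five concentrations. Insufficient inhibition: endpoint recorded as highest concentration tested. GI50 is the concentration that inhibits growth by half. At the TGI there is no net growth.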

Assays:
Test in all cases: NCI anticancer screen, dose series, 48 h
SNB-19 CNS = tested on: SNB-19 CNS
CCRF-CEM leukemia = tested on: CCRF-CEM leukemia
PC-3 prostate = tested on: PC-3 prostate
SN12C renal = tested on: SN12C renal
OVCAR-4 ovarian = tested on: OVCAR-4 ovarian
UACC-62 melanoma = tested on: UACC-62 melanoma
RXF 393 renal = tested on: RXF 393 renal
OVCAR-3 ovarian = tested on: OVCAR-3 ovarian
SW-620 colon = tested on: SW-620 colon
KM12 colon = tested on: KM12 colon
T-47D breast = tested on: T-47D breast
SF-268 CNS = tested on: SF-268 CNS
M14 melanoma = tested on: M14 melanoma
NCI-H522 lung = tested on: NCI-H522 lung
SK-MEL-5 melanoma = tested on: SK-MEL-5 melanoma
NCI-H23 lung = tested on: NCI-H23 lung
HCC-2998 colon = tested on: HCC-2998 colon
NCI-H226 lung = tested on: NCI-H226 lung
SF-539 CNS = tested on: SF-539 CNS
RPMI-8226 leukemia = tested on: RPMI-8226 leukemia
IGROV1 ovarian = tested on: IGROV1 ovarian
MOLT-4 leukemia = tested on: MOLT-4 leukemia
786-0 renal = tested on: 786-0 renal
TK-10 renal = tested on: TK-10 renal
HT29 colon = tested on: HT29 colon
LOX IMVI melanoma = tested on: LOX IMVI melanoma
COLO 205 colon = tested on: COLO 205 colon
U251 CNS = tested on: U251 CNS
A498 renal = tested on: A498 renal
MDA-MB-231 breast = tested on: MDA-MB-231 breast
CAKI-1 renal = tested on: CAKI-1 renal
ACHN renal = tested on: ACHN renal
HS 578T breast = tested on: HS 578T breast
SK-OV-3 ovarian = tested on: SK-OV-3 ovarian
SK-MEL-2 melanoma = tested on: SK-MEL-2 melanoma
OVCAR-8 ovarian = tested on: OVCAR-8 ovarian
DU-145 prostate = tested on: DU-145 prostate
SK-MEL-28 melanoma = tested on: SK-MEL-28 melanoma
UACC-257 melanoma = tested on: UACC-257 melanoma
HCT-15 colon = tested on: HCT-15 colon
K-562 leukemia = tested on: K-562 leukemia
MDA-MB-435 = tested on: MDA-MB-435
HCT-116 colon = tested on: HCT-116 colon
NCI-H460 lung = tested on: NCI-H460 lung
BT-549 breast = tested on: BT-549 breast
A549 NSCLC = tested on: A549 NSCLC
UO-31 renal = tested on: UO-31 renal
MCF7 breast = tested on: MCF7 breast
OVCAR-5 ovarian = tested on: OVCAR-5 ovarian
MALME-3M melanoma = tested on: MALME-3M melanoma
SR leukemia = tested on: SR leukemia
NCI/ADR-RES ovarian = tested on: NCI/ADR-RES ovarian
HL-60(TB) leukemia = tested on: HL-60(TB) leukemia
HOP-62 NSCLC = tested on: HOP-62 NSCLC

## CN(C)c1ccc(O)c2c1CC1CC3C(N(C)C)C(=O)C(C(N)=O)=C(O)C3(O)C(=O)C1=C2O (stereo not drawn)
SNB-19 CNS
  GI50: 18.8 µM
  TGI: > 100 µM
CCRF-CEM leukemia
  GI50: 19.5 µM
  TGI: > 100 µM
PC-3 prostate
  GI50: 12.6 µM
  TGI: 48.7 µM
SN12C renal
  GI50: 18.1 µM
  TGI: 89.9 µM
OVCAR-4 ovarian
  GI50: 24.2 µM
  TGI: > 100 µM
UACC-62 melanoma
  GI50: 9.18 µM
  TGI: 22 µM
RXF 393 renal
  GI50: 4.84 µM
  TGI: 21.6 µM
OVCAR-3 ovarian
  GI50: 12.8 µM
  TGI: 39 µM
SW-620 colon
  GI50: 15.3 µM
  TGI: > 100 µM
KM12 colon
  GI50: 13.1 µM
  TGI: 32.2 µM
T-47D breast
  GI50: 27.7 µM
  TGI: > 100 µM
SF-268 CNS
  GI50: 18.9 µM
  TGI: 92.3 µM
M14 melanoma
  GI50: 11.2 µM
  TGI: > 100 µM
NCI-H522 lung
  GI50: 13.6 µM
  TGI: 46 µM
SK-MEL-5 melanoma
  GI50: 12 µM
  TGI: 28 µM
NCI-H23 lung
  GI50: 15.2 µM
  TGI: 56 µM
HCC-2998 colon
  GI50: 11.9 µM
  TGI: 39.1 µM
NCI-H226 lung
  GI50: 20.6 µM
  TGI: > 100 µM
SF-539 CNS
  GI50: 14.6 µM
  TGI: 35.5 µM
RPMI-8226 leukemia
  GI50: 5.86 µM
  TGI: 26.8 µM
IGROV1 ovarian
  GI50: 5.78 µM
  TGI: 24.2 µM
MOLT-4 leukemia
  GI50: 22.6 µM
  TGI: 74.1 µM
786-0 renal
  GI50: 11.5 µM
  TGI: 39.7 µM
TK-10 renal
  GI50: 5.66 µM
  TGI: 35.5 µM
HT29 colon
  GI50: 15.4 µM
  TGI: 42.9 µM
LOX IMVI melanoma
  GI50: 6.21 µM
  TGI: 37.3 µM
COLO 205 colon
  GI50: 13.7 µM
  TGI: 27 µM
U251 CNS
  GI50: 6.84 µM
  TGI: 31.6 µM
A498 renal
  GI50: 6.96 µM
  TGI: 35.9 µM
MDA-MB-231 breast
  GI50: 19.1 µM
  TGI: 47 µM
CAKI-1 renal
  GI50: 5.74 µM
  TGI: 91.4 µM
ACHN renal
  GI50: 8.4 µM
  TGI: > 100 µM
HS 578T breast
  GI50: 14.4 µM
  TGI: 59.4 µM
SK-OV-3 ovarian
  GI50: 14.6 µM
  TGI: 85.4 µM
SK-MEL-2 melanoma
  GI50: 5.66 µM
  TGI: 22.9 µM
OVCAR-8 ovarian
  GI50: 9.84 µM
  TGI: 81.7 µM
DU-145 prostate
  GI50: 13.1 µM
  TGI: 59.1 µM
SK-MEL-28 melanoma
  GI50: 22.1 µM
  TGI: 59.1 µM
UACC-257 melanoma
  GI50: 17 µM
  TGI: 52.1 µM
HCT-15 colon
  GI50: 5.59 µM
  TGI: > 100 µM
K-562 leukemia
  GI50: 16.8 µM
  TGI: > 100 µM
MDA-MB-435
  GI50: 17.9 µM
  TGI: > 100 µM
HCT-116 colon
  GI50: 11.6 µM
  TGI: > 100 µM
NCI-H460 lung
  GI50: 10.6 µM
  TGI: 29.6 µM
BT-549 breast
  GI50: 13.6 µM
  TGI: 45 µM
A549 NSCLC
  GI50: 9.43 µM
  TGI: 59.2 µM
UO-31 renal
  GI50: 7.47 µM
  TGI: 73 µM
MCF7 breast
  GI50: 20.2 µM
  TGI: > 100 µM
OVCAR-5 ovarian
  GI50: 15.6 µM
  TGI: > 100 µM
MALME-3M melanoma
  GI50: 16.3 µM
  TGI: 41.7 µM
SR leukemia
  GI50: 15.7 µM
  TGI: > 100 µM
NCI/ADR-RES ovarian
  GI50: 17.3 µM
  TGI: 73.6 µM
HL-60(TB) leukemia
  GI50: 12.7 µM
  TGI: 48.9 µM
HOP-62 NSCLC
  GI50: 19.1 µM
  TGI: 62.9 µM
